Experiments:
Assay in all cases: relative viability (nuclei count vs DMSO), 5 days (fraction); higher = more cells survive
Daporinad + Trametinib = compound: O=C(/C=C/c1cccnc1)NCCCCC1CCN(C(=O)c2ccccc2)CC1 [Daporinad] + CC(=O)Nc1cccc(-n2c(=O)n(C3CC3)c(=O)c3c(Nc4ccc(I)cc4F)n(C)c(=O)c(C)c32)c1 [Trametinib] (partner 0.02 µM)
In short: (§1)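 Lung cancer cell lines were seeded in 1536-well plates and dosed by pin tool the next day, with either a single drug or a fixed anchor-drug dose combined with five library-drug doses (not always all listed) spaced in √10 steps. Five days later, one step fixed the cells and stained their nuclei (final 0.05% Triton X-100, 1% formaldehyde, 1 ug/ml Hoechst), and nuclei were counted on 4× images. Relative viability is the nuclei count in treated wells divided by the count in vehicle wells, and each value is the median of duplicate plates.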

Daporinad + Decitabine = compound: O=C(/C=C/c1cccnc1)NCCCCC1CCN(C(=O)c2ccccc2)CC1 [Daporinad] + Nc1ncn([C@H]2C[C@H](O)[C@@H](CO)O2)c(=O)n1 [Decitabine] (partner 2 µM)
In short: as §1

Daporinad + Linsitinib = compound: O=C(/C=C/c1cccnc1)NCCCCC1CCN(C(=O)c2ccccc2)CC1 [Daporinad] + C[C@]1(O)C[C@@H](c2nc(-c3ccc4ccc(-c5ccccc5)nc4c3)c3c(N)nccn32)C1 [Linsitinib] (partner 1 µM)
In short: as §1

R406 + Luminespib = compound: COc1cc(Nc2ncc(F)c(Nc3ccc4c(n3)NC(=O)C(C)(C)O4)n2)cc(OC)c1OC [R406] + CCNC(=O)c1noc(-c2cc(C(C)C)c(O)cc2O)c1-c1ccc(CN2CCOCC2)cc1 [Luminespib] (partner 0.01 µM)
In short: as §1

Row | Cell Line | relative viability (Daporinad + Trametinib; first compound 0.0005 µM) | relative viability (Daporinad + Trametinib; first compound 0.001581 µM) | relative viability (Daporinad + Trametinib; first compound 0.005 µM) | relative viability (Daporinad + Trametinib; first compound 0.01581 µM) | relative viability (Daporinad + Decitabine; first compound 0.0005 µM) | relative viability (Daporinad + Decitabine; first compound 0.001581 µM) | relative viability (Daporinad + Decitabine; first compound 0.005 µM) | relative viability (Daporinad + Decitabine; first compound 0.01581 µM) | relative viability (Daporinad + Linsitinib; first compound 0.0005 µM) | relative viability (Daporinad + Linsitinib; first compound 0.001581 µM) | relative viability (Daporinad + Linsitinib; first compound 0.005 µM) | relative viability (Daporinad + Linsitinib; first compound 0.01581 µM) | relative viability (R406 + Luminespib; first compound 0.08 µM) | relative viability (R406 + Luminespib; first compound 0.253 µM) | relative viability (R406 + Luminespib; first compound 0.8 µM) | relative viability (R406 + Luminespib; first compound 2.53 µM) | relative viability (R406 + Luminespib; first compound 8 µM)
1 | 201T | 0.713 | 0.731 | 0.705 | 0.735 | 0.849 | 0.917 | 0.832 | 0.881 | 0.998 | 0.973 | 1.04 | 1.02 | 1.08 | 1.06 | 1.07 | 1 | 0.655
2 | A549 | – | – | – | – | 0.227 | 0.252 | 0.234 | 0.161 | 0.535 | 0.604 | 0.516 | 0.627 | – | – | – | – | –
3 | A-427 | 0.695 | 0.825 | 0.778 | 0.708 | 0.54 | 0.571 | 0.506 | 0.493 | 0.96 | 1.08 | 1.1 | 0.881 | 0.929 | 1 | 1.04 | 0.398 | 0.593
4 | ABC-1 | – | – | – | – | 0.807 | 1.33 | 0.987 | 0.911 | 0.887 | 1.04 | 0.882 | 0.792 | – | 0.569 | 0.27 | 0.338 | 0.213
5 | BEN | 1.01 | 0.996 | 1.06 | 1.18 | 0.799 | 0.783 | 0.803 | 0.835 | 0.923 | 0.938 | 0.951 | 1.22 | 0.365 | 0.343 | 0.22 | 0.214 | 0.392
6 | CAL-12T | 0.275 | 0.378 | 0.37 | 0.229 | – | – | – | – | 0.697 | 0.936 | 0.778 | 0.24 | 0.57 | 0.516 | 0.52 | 0.124 | 0.138
7 | COR-L23 | 0.577 | 0.662 | 0.737 | 0.302 | 0.43 | 0.471 | 0.437 | 0.227 | 0.964 | 0.959 | 0.942 | 0.189 | 0.665 | 0.919 | 0.71 | 0.3 | 0.372
8 | COR-L 105 | 0.445 | 0.41 | 0.496 | 0.469 | 0.692 | 0.601 | 0.612 | 0.6 | 0.927 | 1.07 | 0.842 | 1.08 | 0.757 | 0.972 | 0.658 | 0.551 | 0.768
9 | Calu-6 | – | – | – | – | – | – | – | – | 0.841 | 1.03 | 0.926 | 0.821 | – | – | – | – | –
10 | ChaGo-K-1 | 0.86 | 0.914 | 0.767 | 0.428 | 0.534 | 0.532 | 0.355 | 0.246 | – | – | – | – | 0.613 | 0.548 | 0.652 | 0.404 | 0.473
11 | EBC-1 | – | – | – | – | – | – | – | – | 0.747 | 1.21 | 0.801 | 1.07 | – | – | – | – | –
12 | EKVX | 0.288 | 0.329 | 0.43 | 0.372 | 0.307 | 0.391 | 0.36 | 0.359 | 1.04 | 1.09 | 0.913 | 1.18 | 0.863 | 0.885 | 1.06 | 0.702 | 0.74
13 | EMC-BAC-2 | 0.868 | 0.935 | 0.8 | 0.433 | 0.993 | 1.05 | 0.666 | 0.464 | 0.904 | 0.797 | 0.802 | 0.339 | 1.14 | 1.15 | 1.27 | 0.745 | 0.532
14 | EPLC-272H | 0.295 | 0.317 | 0.284 | 0.31 | 0.318 | 0.375 | 0.378 | 0.403 | 1.11 | 1.32 | 1.31 | 1.4 | 0.259 | 0.264 | 0.337 | 0.106 | 0.0888
15 | H3255 | 0.557 | 0.637 | 0.645 | 0.71 | 0.464 | 0.605 | 0.863 | 0.816 | 0.913 | 0.951 | 1.03 | 1.13 | 1.04 | – | 0.827 | 0.69 | 0.731
16 | HARA | 0.833 | 0.761 | 0.627 | 0.403 | 0.351 | 0.496 | 0.442 | 0.207 | 0.949 | 0.937 | 1.03 | 0.188 | 0.51 | 0.638 | 1.06 | 0.483 | 0.193
17 | HCC-15 | 0.339 | 0.429 | 0.39 | 0.418 | 0.601 | 0.714 | 0.771 | 0.766 | 0.79 | 0.943 | 0.926 | 0.928 | 0.289 | 0.518 | 0.295 | 0.298 | 0.465
18 | HCC-44 | 1.02 | 1.15 | 1.08 | 1.07 | 0.921 | 0.988 | 1.04 | 0.95 | 0.655 | 0.635 | 0.762 | 0.714 | 0.975 | 0.911 | 1.2 | 0.458 | 0.274
19 | HCC-78 | 0.68 | 0.821 | 0.71 | 1.1 | 0.805 | 0.744 | 0.669 | 0.65 | 0.541 | 0.619 | 0.767 | 0.921 | – | – | – | – | –
20 | HCC-366 | 0.332 | – | 0.376 | 0.409 | 0.413 | – | 0.368 | 0.321 | 0.687 | 0.753 | 0.87 | 0.887 | – | – | – | – | –
21 | HCC-827 | 0.498 | 0.508 | 0.553 | 0.552 | 0.322 | 0.356 | 0.351 | 0.336 | 1 | 0.998 | 1.02 | 0.921 | 0.772 | 0.385 | 0.563 | 0.334 | 0.195
22 | HOP-62 | 0.453 | 0.427 | 0.484 | 0.422 | 0.176 | 0.209 | 0.208 | 0.179 | – | 0.893 | 1.15 | 0.789 | 0.858 | 1.01 | 0.901 | 0.95 | 0.947

Reference: the supplement of paper PMC10307832
